Data reported in the supplement of paper PMC10307832.

Key:
Experiment in all cases: relative viability (nuclei count vs DMSO), 5 days (fraction); higher = more cells survive
VX-11e + Navitoclax = compound: CC1=CN=C(N=C1C2=CNC(=C2)C(=O)N[C@H](CO)C3=CC(=CC=C3)Cl)NC4=C(C=C(C=C4)F)Cl [VX-11e] + CC1(C)CCC(c2ccc(Cl)cc2)=C(CN2CCN(c3ccc(C(=O)NS(=O)(=O)c4ccc(N[C@H](CCN5CCOCC5)CSc5ccccc5)c(S(=O)(=O)C(F)(F)F)c4)cc3)CC2)C1 [Navitoclax] (partner 0.5 µM)
In short: (§1)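 Nuclei were stained with Hoechst during a one-step fixation (final 0.05% Triton X-100, 1% formaldehyde, 1 ug/ml Hoechst) carried out 5 days after dosing, then counted on 4× images. The cells, lung cancer lines in 1536-well plates, had been dosed by pin tool the day after seeding with one drug alone or a fixed anchor-drug dose plus five library-drug doses (not always all listed) in √10 steps. Relative viability is the nuclei count in treated wells divided by that in vehicle wells, and each value is the median of duplicate plates.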

VX-11e + Crizotinib = compound: CC1=CN=C(N=C1C2=CNC(=C2)C(=O)N[C@H](CO)C3=CC(=CC=C3)Cl)NC4=C(C=C(C=C4)F)Cl [VX-11e] + C[C@@H](Oc1cc(-c2cnn(C3CCNCC3)c2)cnc1N)c1c(Cl)ccc(F)c1Cl [Crizotinib] (partner 1 µM)
In short: as §1

VX-11e + Tozasertib = compound: CC1=CN=C(N=C1C2=CNC(=C2)C(=O)N[C@H](CO)C3=CC(=CC=C3)Cl)NC4=C(C=C(C=C4)F)Cl [VX-11e] + Cc1cc(Nc2cc(N3CCN(C)CC3)nc(Sc3ccc(NC(=O)C4CC4)cc3)n2)n[nH]1 [Tozasertib] (partner 0.1 µM)
In short: as §1

VX-11e + Vorinostat = compound: CC1=CN=C(N=C1C2=CNC(=C2)C(=O)N[C@H](CO)C3=CC(=CC=C3)Cl)NC4=C(C=C(C=C4)F)Cl [VX-11e] + O=C(CCCCCCC(=O)Nc1ccccc1)NO [Vorinostat] (partner 1 µM)
In short: as §1

Cell Line	relative viability (VX-11e + Navitoclax; first compound 0.04 µM)	relative viability (VX-11e + Navitoclax; first compound 0.1265 µM)	relative viability (VX-11e + Navitoclax; first compound 0.4 µM)	relative viability (VX-11e + Navitoclax; first compound 1.265 µM)	relative viability (VX-11e + Navitoclax; first compound 4 µM)	relative viability (VX-11e + Crizotinib; first compound 0.04 µM)	relative viability (VX-11e + Crizotinib; first compound 0.1265 µM)	relative viability (VX-11e + Crizotinib; first compound 0.4 µM)	relative viability (VX-11e + Crizotinib; first compound 1.265 µM)	relative viability (VX-11e + Crizotinib; first compound 4 µM)	relative viability (VX-11e + Tozasertib; first compound 0.04 µM)	relative viability (VX-11e + Tozasertib; first compound 0.1265 µM)	relative viability (VX-11e + Tozasertib; first compound 0.4 µM)	relative viability (VX-11e + Tozasertib; first compound 1.265 µM)	relative viability (VX-11e + Tozasertib; first compound 4 µM)	relative viability (VX-11e + Vorinostat; first compound 0.04 µM)	relative viability (VX-11e + Vorinostat; first compound 0.1265 µM)	relative viability (VX-11e + Vorinostat; first compound 0.4 µM)	relative viability (VX-11e + Vorinostat; first compound 1.265 µM)	relative viability (VX-11e + Vorinostat; first compound 4 µM)
201T	1.23	1.16	1.2	1.17	1.08	1.02	0.961	1.02	0.97	0.948	0.99	0.923	0.941	0.909	0.774	0.975	0.988	0.885	0.65	0.855
LK-2	0.893	0.732	0.781	0.738	0.86		0.275	0.394		0.243	0.148	0.182	0.22	0.185	0.159	0.223	0.323	0.268	0.297	0.227
NCI-H1651	1.06	1.1	0.968	0.893	0.939	0.916	0.821	0.826	0.768	0.812	0.898	0.523	0.536	0.38	0.253	0.526	0.557	0.55	0.517	0.569
LU99A	0.82	0.925	0.651	0.335	0.161	0.527	0.496	0.517	0.475	0.243	0.25	0.246	0.269	0.244	0.22	0.468	0.469	0.487	0.274	0.226
LC-2-ad	0.463	0.375	0.362	0.372	0.248	0.459	0.424	0.529	0.395	0.401	0.522	0.45	0.319	0.383	0.369	0.84	0.695	0.733	0.456	0.376
NCI-H1975	1.03	1.09	1.13	1.06	0.612	0.972	0.962	0.95	0.963	0.407	0.695	0.526	0.228	0.216	0.124	0.736	0.724	0.664	0.677	0.465
NCI-H460	1.37	1.16	1.13	0.542	0.0727	1.18	0.907	0.784	0.56	0.0797	0.678	0.268	0.0898	0.031	0.0316	0.855	0.693	0.692	0.522	0.0489
